Data taken from patent US20240269304A1, “BCL-XL INHIBITOR ANTIBODY-DRUG CONJUGATES AND METHODS OF USE THEREOF” (Novartis AG, priority 2020, published 2024).

System: EBC-1 xenografts
Experiment: In vivo testing of EpCAM ADCs with paclitaxel, EBC-1 xenografts (Example 17)
Set-up: species or system female nude mice
Conditions: Paclitaxel Alone
Description: EBC-1 cells were cultured at 37° C. (atmosphere of 5% CO2) in DMEM (Gibco 11965-084) supplemented with 10% FBS (HI-FBS #134K19, Tet-free). Treatment with 0.25% Trypsin (Gibco 25200-056) was used for sub-culturing. To establish EBC-1 xenografts, cells were harvested and re-suspended in a 1:1 v/v mixture of phosphate buffered saline and Matrigel. A total of 5×10^6 cells in a volume of 150 μL were injected subcutaneously in the flanks of female nude mice (Charles River, USA). Tumor growth was monitored regularly post cell inoculation and animals were randomized into treatment groups (n=8) with a mean tumor volume of about 210 mm^3. EpCAM-DANAPA-L11C-P25 ADC, 3207-DANAPA-L11C-P25 isotype control ADC, and EpCAM-DANAPA CysMab control antibody were all dosed in combination with paclitaxel (LC Laboratories, Woburn, MA, Cat #: P-9600) as indicated in FIG. 13. The ADCs and CysMab antibody were administered intravenously (i.v.) once at the start of treatment at 30 mg/kg. Paclitaxel was administered i.v. once at 12.5 mg/kg, 24 h after the ADC or CysMab dose. All reagents were dosed at 10 mL/kg based on the individual mouse body weight. The ADCs and CysMab were formulated at 3 mg/mL in PBS on the day of treatment. Paclitaxel was reconstituted in 50% Ethanol+50% Cremophor EL (Kolliphor EL) at a concentration of 6 mg/mL, and then further diluted to 1.25 mg/mL with sterile saline prior to administration on the day of treatment.
Tumor volume data were analyzed for statistical difference relative to the EpCAM-DANAPA-L 11C-P25 ADC+ paclitaxel combination group. Unpaired two-tailed T-tests were used to make comparisons between groups.
As a measure of efficacy, %T/C values were calculated according to the formula: […]
Tumor regression was calculated according to the formula: […]
Δtumor volumes represent mean tumor volumes on the measurement day minus the mean tumor volume at the start of treatment. The Δtumor volume control value specified above refers to mean tumor volume changes in the vehicle group.

CC(=O)O[C@H]1C(=O)[C@@]2(C)[C@H]([C@H](OC(=O)c3ccccc3)[C@]3(O)C[C@H](OC(=O)[C@H](O)[C@@H](NC(=O)c4ccccc4)c4ccccc4)C(C)=C1C3(C)C)[C@]1(OC(C)=O)CO[C@@H]1C[C@@H]2O [Paclitaxel, paclitaxel]
% T/C (Day of Evaluation) (Day 10): 34%
ΔTumor volume (mm^3 ± SEM) (Day of Evaluation) (Day 10): 510.8 ± 158.5 mm^3
Significance vs EpCAM-DANAPA-L11C-P25 ADC on Day 9 (Day of Evaluation) (Day 10, unpaired two-tailed T-test vs EpCAM-DANAPA-L11C-P25 ADC + paclitaxel group): P = 0.0014
Complete Responders (Day of Evaluation) (Day 32, tumors regressed to 0 mm^3): 0/8
